Columns and labels:
locomotor activity = settings: M4 knockout mice, but not the other four mAChR subtypes; cited from earlier work
[1] = test system: catalepsy induced by the DA receptor antagonist haloperidol; experiment: haloperidol-induced catalepsy; format: in vivo, mice
From the text: Furthermore, haloperidol-induced catalepsy, a model of parkinsonian motor disability, is reduced in M4 knockout mice as compared to wild-type controls. […] The reversal by scopolamine was uncommonly robust and more pronounced than we observe with agents targeting a number of other targets being evaluated for potential antiparkinsonian effects, including metabotropic glutamate (mGlu) receptors mGlu4 or mGlu5, A2A adenosine receptors, and NMDA receptors. […] Taken together with the extensive studies of M4 modulation of basal ganglia and motor function, these studies provide compelling evidence that M4 is the dominant mAChR subtype involved in the antiparkinsonian effects of non-selective mAChR antagonists and provide support for discovery and development of selective M4 antagonists for treatment of neurodegenerative disease such as PD, dystonia, tardive dyskinesia and other movement disorders.

Human M4 = target: T1, Human M4 (Homo sapiens, UniProt P08173); experiment: mAChR M4 cell-based functional assay (calcium flux, human M4/Gqi5/CHO cells); settings: for remaining activity at 30 µM: CHO, % ACh maximum at 30 μM, read-out: Emin (%) human M4; for IC50: antagonist mode, decrease of the response to an EC80 concentration of acetylcholine, CHO-K1 cells with Gqi5
T1 construct: expressed in transfected cells; host or cells: CHO-K1 (ATCC), co-transfected with chimeric G protein Gqi5
T1 sequence (P08173 1-479): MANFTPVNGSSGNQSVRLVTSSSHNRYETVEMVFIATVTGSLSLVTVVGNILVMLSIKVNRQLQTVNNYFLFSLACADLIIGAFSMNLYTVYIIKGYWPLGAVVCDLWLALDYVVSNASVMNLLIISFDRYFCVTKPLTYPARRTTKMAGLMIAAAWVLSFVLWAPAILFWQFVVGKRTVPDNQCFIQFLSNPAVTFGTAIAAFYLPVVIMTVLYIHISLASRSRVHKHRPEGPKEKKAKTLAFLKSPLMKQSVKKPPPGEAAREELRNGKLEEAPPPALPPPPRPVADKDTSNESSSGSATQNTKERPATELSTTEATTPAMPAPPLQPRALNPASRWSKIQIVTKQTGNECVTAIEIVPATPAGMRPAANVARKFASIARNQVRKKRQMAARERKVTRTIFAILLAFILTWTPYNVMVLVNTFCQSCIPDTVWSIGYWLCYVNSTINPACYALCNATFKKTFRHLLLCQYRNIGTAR
Protocol: (§1) Human or rat M4 cDNA, along with the chimeric G protein Gqi5, were transfected into Chinese hamster ovary (CHO-K1) cells purchased from the American Type Culture Collection using Lipofectamine2000. M4/Gqi5/CHO cells were grown in Ham's F-12 medium containing 10% heat-inactivated fetal bovine serum (FBS), 20 mM HEPES, 500 μg/mL G418 sulfate, and 200 μg/mL Hygromycin B.
(§2) For high throughput measurement of agonist-evoked increases in intracellular calcium, CHO-K1 cells stably expressing muscarinic receptors were plated in growth medium lacking G418 and hygromycin at 15,000 cells/20 μL/well in Greiner 384-well black-walled, tissue culture (TC)-treated, clear-bottom plates (VWR). Cells were incubated overnight at 37° C. and 5% CO2. The next day, cells were washed using an ELX 405 (BioTek) with assay buffer; the final volume was then aspirated to 20 μL. Next, 20 μL of a 2.3 μM stock of Fluo-4/acetoxymethyl ester (Invitrogen, Carlsbad, Calif.), prepared as a 2.3 mM stock in DMSO and mixed in a 1:1 ratio with 10% (w/v) Pluronic F-127 and diluted in assay buffer, was added to the wells and the cell plates were incubated for 50 min at 37° C. and 5% CO2. Dye was removed by washing with the ELX 405 and the final volume was aspirated to 20 μL. Compound master plates were formatted in a 10 point concentration-response curve (CRC) format (1:3 dilutions) in 100% DMSO with a starting concentration of 10 or 1 mM using a BRAVO liquid handler (Agilent). Test compound CRCs were then transferred to daughter plates (240 nL) using the Echo acoustic plate reformatter (Labcyte, Sunnyvale, Calif.) and then diluted into assay buffer (40 μL) to a 2× stock using a Thermo Fisher Combi (Thermo Fisher Scientific, Waltham, Mass.).
(§3) Calcium flux was measured using the Functional Drug Screening System (FDSS) 6000 or 7000 (Hamamatsu Corporation, Tokyo, Japan) as an increase in the fluorescent static ratio. Compounds were applied to cells (20 μL, 2×) using the automated system of the FDSS at 2 seconds into the protocol and the data were collected at 1 Hz. At 143 s, 10 μL of an EC20 concentration of the muscarinic receptor agonist acetylcholine was added (5×), followed by the addition of 12 μL of an EC80 concentration of acetylcholine at the 268 s time point (5×). Agonist activity was analyzed as a concentration-dependent increase in calcium mobilization upon compound addition. Positive allosteric modulator activity was analyzed as a concentration-dependent increase in the EC20 acetylcholine response. Antagonist activity was analyzed as a concentration-dependent decrease in the EC80 acetylcholine response for the purposes of the tables herein, an IC50 (inhibitory concentration 50) was calculated as a concentration-dependent decrease of the response elicited by an EC80 concentration of acetylcholine, Concentration-response curves were generated using a four-parameter logistical equation in XLFit curve fitting software (IDBS, Bridgewater, N.J.) for Excel (Microsoft, Redmond, Wash.) or Prism (GraphPad Software, Inc., San Diego, Calif.) or the Dotmatics software platform (Dotmatics, Bishop's Stortford, UK).
(§4) Compounds were synthesized as described above. Activity (IC50 and Emin) was determined in the mAChR M4 cell-based functional assay as described above and the data are shown in Table 2. The compound number corresponds to the compound numbers used in Examples 1-3.

Rat M4 = target: T2, Rat M4 (Rattus norvegicus, UniProt P08485); experiment: mAChR M4 cell-based functional assay (calcium flux, rat M4/Gqi5/CHO cells); settings: for remaining activity at 30 µM: CHO, % ACh maximum at 30 μM, read-out: Emin (%) rat M4; for IC50: antagonist mode, decrease of the response to an EC80 concentration of acetylcholine, CHO-K1 cells with Gqi5
T2 construct: expressed in transfected cells; host or cells: CHO-K1 (ATCC), co-transfected with chimeric G protein Gqi5
T2 sequence (P08485 1-478): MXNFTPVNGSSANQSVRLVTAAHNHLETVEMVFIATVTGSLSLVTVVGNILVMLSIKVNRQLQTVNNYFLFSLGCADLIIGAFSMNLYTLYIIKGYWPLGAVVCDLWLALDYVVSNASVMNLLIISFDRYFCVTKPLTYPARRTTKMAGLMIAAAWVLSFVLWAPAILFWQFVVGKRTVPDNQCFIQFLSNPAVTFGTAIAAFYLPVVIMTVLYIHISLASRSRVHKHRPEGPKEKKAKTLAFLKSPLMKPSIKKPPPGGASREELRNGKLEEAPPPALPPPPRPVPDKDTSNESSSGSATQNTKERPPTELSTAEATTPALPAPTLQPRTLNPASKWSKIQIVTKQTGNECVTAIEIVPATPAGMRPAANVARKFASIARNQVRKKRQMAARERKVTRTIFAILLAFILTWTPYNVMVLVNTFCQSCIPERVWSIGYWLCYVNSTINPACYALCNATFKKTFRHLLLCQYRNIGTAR
Protocol: as §1, §2, §3, §4

Compound	locomotor-activating effects (locomotor activity)	reduction of haloperidol-induced catalepsy ([1]; M4 KO mice)	reversal of haloperidol-induced catalepsy ([1]; WT mice)	remaining activity at 30 µM (Human M4) [%]	IC50 (Human M4) [nM]	remaining activity at 30 µM (Rat M4) [%]	IC50 (Rat M4) [nM]
CN1[C@@H]2C[C@@H](OC(=O)[C@H](CO)c3ccccc3)C[C@H]1[C@@H]1O[C@@H]12 [scopolamine]	dramatically reduced	ineffective in reducing catalepsy	completely reversed				
Cc1nn(C)c(C)c1-c1ccc(N2CCC3CN(CC45CC6CC(CC(C6)C4)C5)CC32)nn1 (stereo not shown) [Compound 19, 5-(adamantan-1-ylmethyl)-1-(6-(1,3,5-trimethyl-1H-pyrazol-4-yl)pyridazin-3-yl)octahydropyrrolo[3,4-b]pyrrole]				3.18	129	4.41	365
Cc1nn(C)cc1-c1ccc(N2CCC3CN(CC45CC6CC(CC(C6)C4)C5)CC32)nn1 (stereo not shown) [Compound 16, 5-(adamantan-1-ylmethyl)-1-(6-(1,3-dimethyl-1H-pyrazol-4-yl)pyridazin-3-yl)octahydropyrrolo[3,4-b]pyrrole]				4.02	191	4.09	753
Cc1cnn(C)c1-c1ccc(N2CCC3CN(CCc4ccccc4)CC32)nn1 (stereo not shown) [Compound 6, 1-(6-(1,4-ditnethyl-1H-pyrazol-5-yl)pyridazin-3-yl)-5-phenethyloctahydropyrrolo[3,4-b]pyrrole]				7.19	1980	30.9	> 10000
CC/C=C\CCCN1CC2CCN(c3ccc(-c4c(C)cnn4C)nn3)C2C1 (stereo not shown) [Compound 12, (Z)-1-(6-(1,4-dimethyl-1H-pyrazol-5-yl)pyridazin-3-yl)-5-(hept-4-en-1-yl)octahydropyrrolo[3,4-b]pyrrole]				15.1	> 10000	45.2	> 10000
Fc1ccc(-c2ccc(N3CCC4CN(CC56CC7CC(CC(C7)C5)C6)CC43)nn2)c(Cl)c1 (stereo not shown) [Compound 18, 5-(adamantan-1-ylmethyl)-1-(6-(2-chloro-4-fluorophenyl)pyridazin-3-yl)octahydropyrrolo[3,4-b]pyrrole]				12	> 10000	36.4	> 10000
Cc1cnn(C)c1-c1ccc(N2CCC3CN(CC4CC5C=CC4C5)CC32)nn1 (stereo not shown) [Compound 3, 5-(bicyclo[2.2.1]hept-5-en-2-ylmethyl)-1-(6-(1,4-dimethyl-1H-pyrazol-5-yl)pyridazin-3-yl)octahydropyrrolo[3,4-b]pyrrole]				4.28	800	16.8	3570
Fc1ccc(Cl)c(-c2ccc(N3CCC4CN(CC56CC7CC(CC(C7)C5)C6)CC43)nn2)c1 (stereo not shown) [Compound 17, 5-(adamantan-1-ylmethyl)-1-(6-(2-chloro-5-fluorophenyl)pyridazin-3-yl)octahydropyrrolo[3,4-b]pyrrole]				20.2	> 10000	49.1	> 10000

Source: US11225484B2, “Substituted octahydropyrrolo[3,4-b]pyrroles as antagonists of the muscarinic acetylcholine receptor M4” (Vanderbilt University, priority 2017, dated 2022)
